Data on 19 molecules can be found in patent publication US10035790B2, “RORγ modulators” (BRISTOL-MYERS SQUIBB COMPANY, priority 2012, dated 2018).

Structures are written as SMILES.

The assay addresses T1, ligand binding domain of human RORγ (A262-S507) (Homo sapiens, UniProt P51449).
T1 construct: made in house; host or cells: E. coli
T1 sequence (P51449 262-507): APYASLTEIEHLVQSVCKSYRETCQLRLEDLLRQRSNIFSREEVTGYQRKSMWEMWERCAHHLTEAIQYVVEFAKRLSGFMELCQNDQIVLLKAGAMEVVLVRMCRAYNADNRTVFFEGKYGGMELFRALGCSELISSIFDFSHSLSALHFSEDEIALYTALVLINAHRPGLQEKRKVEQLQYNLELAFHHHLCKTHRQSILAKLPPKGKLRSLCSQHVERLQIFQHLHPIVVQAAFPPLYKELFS
In words: General RORγ SPA binding assay (competition with [3H]25-hydroxycholesterol). The following applies: RORγ SPA binding assay, inhibition of [3H]25-hydroxycholesterol binding; read-out: IC50. An outline of the steps:
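N-terminally His-tagged protein was expressed in E. coli and nickel-purified. Then 50 nM protein was preincubated with compound for 15 min at room temperature in PBS with 0.5% fatty acid free BSA, followed by radioligand for 15 min and copper His-tag SPA beads for 30 min. IC50 came from percent inhibition of binding.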
For `Cc1nc(C)c(-c2nnc(-c3ccnc(C(F)(F)F)n3)o2)c(C2CCN(S(=O)(=O)Cc3ccccc3F)CC2)n1` [Compound C34, 4-(1-{[(2-Fluorophenyl)methyl]sulfonyl}piperidin-4-yl)-2,6-dimethyl-5-{5-[2-(trifluoromethyl)pyrimidin-4-yl]-1,3,4-oxadiazol-2-yl}pyrimidine], the IC50 worked out at 87.1 nM.

`Cc1nc(C)c(-c2nnc(-c3ccnc(C(F)(F)F)n3)o2)c(C2CCN(C(=O)[C@H](C)c3c(F)cccc3F)CC2)n1` [Compound C35, (R)-2-(2,6-Difluorophenyl)-1-(4-(2,6-dimethyl-5-(5-(2-(trifluoromethyl)pyrimidin-4-yl)-1,3,4-oxadiazol-2-yl)pyrimidin-4-yl)piperidin-1-yl)propan-1-one]: the IC50 is 608 nM.

Regarding `Cc1nc(C)c(-c2nnc(-c3ccnc(C(F)(F)F)n3)o2)c(C2CCN(C(=O)N(C)c3c(F)cccc3F)CC2)n1` [Compound C36, N-(2,6-Difluorophenyl)-4-(2,6-dimethyl-5-(5-(2-(trifluoromethyl)pyrimidin-4-yl)-1,3,4-oxadiazol-2-yl)pyrimidin-4-yl)-N-methylpiperidine-1-carboxamide], the IC50 came to 155 nM.

For the molecule `[2H]C([2H])c1nc(C)c(-c2nnc(-c3ccnc(C(F)(F)F)n3)o2)c(C2CCN(C(=O)C([2H])c3c(F)cccc3F)CC2)n1` (stereo not shown) [Compound C37, 4-{1-[(2,6-Difluorophenyl)acetyl-2-d]piperidin-4-yl}-2-methyl-d2-6-methyl-5-{5-[2-(trifluoromethyl)pyrimidin-4-yl]-1,3,4-oxadiazol-2-yl}pyrimidine], the IC50 stood at 22.1 nM.

On to `[2H]C([2H])(C(=O)N1CCC(c2nc(C)nc(C)c2-c2nnc(-c3ccnc(C(F)(F)F)n3)o2)CC1)c1c(F)cccc1F` [Compound C38, 4-{1-[(2,6-Difluorophenyl)acetyl-2,2-d2]piperidin-4-yl}-2,6-dimethyl-5-{5-[2-(trifluoromethyl)pyrimidin-4-yl]-1,3,4-oxadiazol-2-yl}pyrimidine], for which the IC50 was 8 nM.

Take `Cc1nc(C)c(-c2nnc(-c3ccnc(C(F)(F)F)n3)s2)c(C2CCN(C(=S)Cc3c(F)cccc3F)CC2)n1` [Compound C39, 4-{1-[2-(2,6-Difluorophenyl)ethanethioyl]piperidin-4-yl}-2,6-dimethyl-5-{5-[2-(trifluoromethyl)pyrimidin-4-yl]-1,3,4-thiadiazol-2-yl}pyrimidine]: the half-inhibitory concentration (IC50) was 4520 nM.

As for `Cc1nc(C)c(-c2nnc(-c3ccnc(C(F)(F)F)n3)o2)c(C2CCN(C(=O)Nc3c(F)cccc3C(F)(F)F)CC2)n1` [Compound C40, 4-(2,6-Dimethyl-5-{5-[2-(trifluoromethyl)pyrimidin-4-yl]-1,3,4-oxadiazol-2-yl}pyrimidin-4-yl)-N-[2-fluoro-6-(trifluoromethyl)phenyl]piperidine-1-carboxamide], the IC50 amounted to 47.5 nM.

Regarding `Cc1nc(C)c(-c2nnc(-c3ccnc(C(F)(F)F)n3)o2)c(C2CCN(C(=O)Cc3ccccc3Cl)CC2)n1` [Compound C41, 4-{1-[(2-Chlorophenyl)acetyl]piperidin-4-yl}-2,6-dimethyl-5-{5-[2-(trifluoromethyl)pyrimidin-4-yl]-1,3,4-oxadiazol-2-yl}pyrimidine], the IC50 is 20.5 nM.

Turning to `Cc1nc(C)c(-c2nnc(-c3ccnc(C(F)(F)F)n3)o2)c(C2CCN(C(=O)Cc3ncccc3Cl)CC2)n1` [Compound C42, 4-{1-[(3-Chloropyridin-2-yl)acetyl]piperidin-4-yl}-2,6-dimethyl-5-{5-[2-(trifluoromethyl)pyrimidin-4-yl]-1,3,4-oxadiazol-2-yl}pyrimidine], the half-maximal inhibitory concentration (IC50) came out at 240 nM.

For `Cc1nc(C)c(-c2nnc(-c3ccnc(C(F)(F)F)n3)o2)c(C2CCN(C(=O)C(F)(F)c3c(F)cccc3F)CC2)n1` [Compound C43, 4-{1-[(2,6-difluorophenyl)(difluoro)acetyl]piperidin-4-yl}-2,6-dimethyl-5-{5-[2-(trifluoromethyl)pyrimidin-4-yl]-1,3,4-oxadiazol-2-yl}pyrimidine], the IC50 came to 11.2 nM.

Turning to `Cc1nc(C)c(-c2nnc(-c3ccnc(C(F)(F)F)n3)o2)c(C2CCN(C(=O)C(F)(F)c3ccccc3F)CC2)n1` [Compound C44, 4-{1-[Difluoro(2-fluorophenyl)acetyl]piperidin-4-yl}-2,6-dimethyl-5-{5-[2-(trifluoromethyl)pyrimidin-4-yl]-1,3,4-oxadiazol-2-yl}pyrimidine], the IC50 is 3.2 nM.

Turning to `Cc1nc(C)c(-c2nnc(-c3ccnc(C(F)(F)F)n3)o2)c(C2CCN(C(=O)Oc3ccccc3Cl)CC2)n1` [Compound C45, 2-Chlorophenyl 4-(2,6-dimethyl-5-{5-[2-(trifluoromethyl)pyrimidin-4-yl]-1,3,4-oxadiazol-2-yl}pyrimidin-4-yl)piperidine-1-carboxylate], the IC50 was determined as 42.8 nM.

Regarding `Cc1nc(C)c(-c2nnc(-c3ccnc(C(F)(F)F)n3)o2)c(C2CCN(C(=S)Nc3c(F)cccc3F)CC2)n1` [Compound C46, N-(2,6-Difluorophenyl)-4-(2,6-dimethyl-5-{5-[2-(trifluoromethyl)pyrimidin-4-yl]-1,3,4-oxadiazol-2-yl}pyrimidin-4-yl)piperidine-1-carbothioamide], the IC50 amounted to 123 nM.

With `Cc1nc(C)c(-c2nnc(-c3ccnc(C(F)(F)F)n3)o2)c(C2CCN(C(=S)Nc3ccccc3C(F)(F)F)CC2)n1` [Compound C47, 4-(2,6-Dimethyl-5-{5-[2-(trifluoromethyl)pyrimidin-4-yl]-1,3,4-oxadiazol-2-yl}pyrimidin-4-yl)-N-[2-(trifluoromethyl)phenyl]piperidine-1-carbothioamide], the half-maximal inhibitory concentration (IC50) turned out to be 80.6 nM.

Turning to `Cc1nc(N)nc(C2CCN(C(=O)Nc3c(F)cccc3F)CC2)c1-c1nnc(-c2ccnc(C(F)(F)F)n2)o1` [Compound C48, 4-(2-Amino-6-methyl-5-{5-[2-(trifluoromethyl)pyrimidin-4-yl]-1,3,4-oxadiazol-2-yl}pyrimidin-4-yl)-N-(2,6-difluorophenyl)piperidine-1-carboxamide], the IC50 was determined as 63.9 nM.

In the case of `Cc1nc(N)nc(C2CCN(C(=O)Nc3c(F)cccc3C(F)(F)F)CC2)c1-c1nnc(-c2ccnc(C(F)(F)F)n2)o1` [Compound C49, 4-(2-Amino-6-methyl-5-{5-[2-(trifluoromethyl)pyrimidin-4-yl]-1,3,4-oxadiazol-2-yl}pyrimidin-4-yl)-N-[2-fluoro-6-(trifluoromethyl)phenyl]piperidine-1-carboxamide], the IC50 is 23.3 nM.

With `Cc1nc(N)nc(C2CCN(C(=O)Oc3c(F)cccc3F)CC2)c1-c1nnc(-c2ccnc(C(F)(F)F)n2)o1` [Compound C50, 2,6-Difluorophenyl 4-(2-amino-6-methyl-5-{5-[2-(trifluoromethyl)pyrimidin-4-yl]-1,3,4-oxadiazol-2-yl}pyrimidin-4-yl)piperidine-1-carboxylate], the IC50 was 6.1 nM.

Regarding `Cc1nc(N)nc(C2CCN(C(=O)Oc3ccccc3Cl)CC2)c1-c1nnc(-c2ccnc(C(F)(F)F)n2)o1` [Compound C51, 2-Chlorophenyl 4-(2-amino-6-methyl-5-{5-[2-(trifluoromethyl)pyrimidin-4-yl]-1,3,4-oxadiazol-2-yl}pyrimidin-4-yl)piperidine-1-carboxylate], the IC50 was found to be 10.5 nM.

As for `Cc1nc(N)nc(C2CCN(C(=O)Oc3ccccc3F)CC2)c1-c1nnc(-c2ccnc(C(F)(F)F)n2)o1` [Compound C52, 2-Fluorophenyl 4-(2-amino-6-methyl-5-{5-[2-(trifluoromethyl)pyrimidin-4-yl]-1,3,4-oxadiazol-2-yl}pyrimidin-4-yl)piperidine-1-carboxylate], the half-maximal inhibitory concentration (IC50) turned out to be 8.7 nM.
